# Measured values: ChEMBL document CHEMBL1139750, “Arylsulfonamides: a study of the relationship between activity and conformational preferences for a series of factor Xa inhibitors” (Bioorg Med Chem Lett, 2006)
# Target: Coagulation factor X (Homo sapiens, UniProt P00742)
# Test: Binding affinity at factor 10a
# Sequence of Coagulation factor X (P00742 41-179 limits assumed): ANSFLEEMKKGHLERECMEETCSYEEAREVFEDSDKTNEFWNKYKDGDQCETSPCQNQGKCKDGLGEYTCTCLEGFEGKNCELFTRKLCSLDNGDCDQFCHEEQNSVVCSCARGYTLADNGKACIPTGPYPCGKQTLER
# Sequence of Coagulation factor X (P00742 235-488 limits assumed): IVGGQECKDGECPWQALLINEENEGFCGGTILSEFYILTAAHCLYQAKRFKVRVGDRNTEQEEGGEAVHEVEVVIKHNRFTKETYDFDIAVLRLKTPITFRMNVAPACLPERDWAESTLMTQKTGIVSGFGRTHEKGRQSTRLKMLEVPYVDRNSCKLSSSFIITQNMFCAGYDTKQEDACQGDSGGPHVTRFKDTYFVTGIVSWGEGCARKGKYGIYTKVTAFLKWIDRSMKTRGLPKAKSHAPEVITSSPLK
row,Structure (SMILES),Ki [nM]
1,C[C@@H](C(=O)N1CCOCC1)N1CC[C@H](NS(=O)(=O)c2cc3ccc(Cl)cc3s2)C1=O,15
2,C[C@@H](C(=O)N1CCOCC1)N1CC[C@H](NS(=O)(=O)c2cc3cc(Cl)ccc3o2)C1=O,782
3,C[C@@H](C(=O)N1CCOCC1)N1CC[C@H](NS(=O)(=O)c2cc3cc(Cl)ccc3s2)C1=O,47
4,C[C@@H](C(=O)N1CCOCC1)N1CC[C@H](NS(=O)(=O)c2cc3ccc(Cl)cc3[nH]2)C1=O,170
5,C[C@@H](C(=O)N1CCOCC1)N1CC[C@H](NS(=O)(=O)c2cc3ccc(Cl)cc3o2)C1=O,285
6,C[C@@H](C(=O)N1CCOCC1)N1CC[C@H](NS(=O)(=O)c2nc3ccc(Cl)cc3s2)C1=O,4160
7,C[C@@H](C(=O)N1CCOCC1)N1CC[C@H](NS(=O)(=O)c2nc3cc(Cl)ccc3s2)C1=O,112
8,C[C@@H](C(=O)N1CCOCC1)N1CC[C@H](NS(=O)(=O)c2cc3cc(Cl)ccc3[nH]2)C1=O,90
